From PubChem BioAssay (NCI)
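Cells were grown in 96-well plates and exposed to each compound for 48 hours at five concentrations; endpoints were interpolated linearly between bracketing concentrations, or set to the highest concentration if not reached. Abbreviation: GI50, concentration required for 50% inhibition of growth. At the TGI there is no net growth.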

What was measured:
Assay in all cases: NCI-60 cell line screen, 48 h; in the data active = GI50 below about 0.43 µM; inactive = the rest
[1] = test system: SF-268 CNS
[2] = test system: NCI-H23 lung
[3] = test system: RPMI-8226 leukemia
[4] = test system: A498 renal
[5] = test system: SN12C renal
[6] = test system: HL-60(TB) leukemia
[7] = test system: A549 NSCLC
[8] = test system: UO-31 renal
[9] = test system: SK-OV-3 ovarian
[10] = test system: HOP-62 NSCLC
[11] = test system: M19-MEL melanoma
[12] = test system: ACHN renal
[13] = test system: HCC-2998 colon
[14] = test system: SK-MEL-28 melanoma
[15] = test system: CCRF-CEM leukemia
[16] = test system: DMS 273 small cell lung
[17] = test system: TK-10 renal
[18] = test system: MOLT-4 leukemia
[19] = test system: OVCAR-4 ovarian
[20] = test system: U251 CNS
[21] = test system: HCT-116 colon
[22] = test system: CAKI-1 renal
[23] = test system: KM12 colon
[24] = test system: 786-0 renal
[25] = test system: HT29 colon
[26] = test system: HCT-15 colon
[27] = test system: UACC-62 melanoma
[28] = test system: OVCAR-5 ovarian
[29] = test system: K-562 leukemia
[30] = test system: COLO 205 colon
[31] = test system: SNB-78 CNS
[32] = test system: M14 melanoma
[33] = test system: LOX IMVI melanoma
[34] = test system: MALME-3M melanoma
[35] = test system: SF-539 CNS
[36] = test system: SK-MEL-5 melanoma
[37] = test system: DMS 114 small cell lung
[38] = test system: SK-MEL-2 melanoma
[39] = test system: SW-620 colon
[40] = test system: NCI-H226 lung
[41] = test system: LXFL 529 NSCLC
[42] = test system: NCI-H522 lung
[43] = test system: NCI-H460 lung
[44] = test system: OVCAR-8 ovarian
[45] = test system: SNB-19 CNS
[46] = test system: DLD-1 colon
[47] = test system: IGROV1 ovarian
[48] = test system: KM20L2 colon
[49] = test system: SF-295 CNS
[50] = test system: HOP-18 NSCLC
[51] = test system: OVCAR-3 ovarian
[52] = test system: EKVX NSCLC
[53] = test system: RXF 393 renal
[54] = test system: UACC-257 melanoma
[55] = test system: SR leukemia
[56] = test system: SNB-75 CNS
[57] = test system: HOP-92 NSCLC

O=C(CSc1nnc(Cc2ccccc2)o1)Nc1ccccc1Cl
> 100 µM: TGI [1] | TGI [2] | TGI [3] | TGI [4] | TGI [5] | TGI [6] | TGI [7] | TGI [8] | TGI [9] | TGI [10] | TGI [11] | TGI [12] | TGI [13] | TGI [14] | TGI [15] | TGI [16] | TGI [17] | TGI [18] | TGI [19] | TGI [20] | TGI [21] | TGI [22] | TGI [23] | TGI [24] | TGI [25] | TGI [26] | TGI [27] | TGI [28] | TGI [29] | TGI [30] | TGI [31] | TGI [32] | TGI [33] | TGI [34] | TGI [35] | TGI [36] | TGI [37] | TGI [38] | TGI [39] | TGI [40] | TGI [41] | TGI [42] | TGI [43] | TGI [44] | TGI [45] | TGI [46] | TGI [47] | TGI [48] | TGI [49] | TGI [50] | TGI [51]

COc1cc[c]([Sb]([Br])([CH]=C(C)C)([CH]=C(C)C)[CH]=C(C)C)cc1
23.3 µM: TGI [16]
35.8 µM: TGI [1]
48.3 µM: TGI [9]
13.7 µM: TGI [6]
9.23 µM: TGI [42]
25.6 µM: TGI [23]
54.5 µM: TGI [43]
72.8 µM: TGI [20]
inactive: GI50 [1] 3.52 µM | GI50 [2] 4.72 µM | GI50 [3] 0.868 µM | GI50 [4] 28.8 µM | GI50 [5] 10.9 µM | GI50 [6] 1.73 µM | GI50 [7] 11.3 µM | GI50 [8] 29.5 µM | GI50 [9] 8.94 µM | GI50 [10] 29.5 µM | GI50 [11] 3.1 µM | GI50 [12] 21.7 µM | GI50 [13] 6.53 µM | GI50 [14] 2.98 µM | GI50 [15] 5.65 µM | GI50 [16] 3.3 µM | GI50 [17] 18.8 µM | GI50 [18] 10.6 µM | GI50 [19] 5.89 µM | GI50 [20] 9.37 µM | GI50 [52] 2.28 µM | GI50 [21] 4.78 µM | GI50 [22] 30.7 µM | GI50 [23] 1.98 µM | GI50 [24] 13.6 µM | GI50 [25] 4.89 µM | GI50 [26] 40.5 µM | GI50 [53] 8.8 µM | GI50 [27] 3.41 µM | GI50 [54] 3.45 µM | GI50 [29] 4.54 µM | GI50 [30] 1.95 µM | GI50 [32] 6.29 µM | GI50 [33] 15.7 µM | GI50 [34] 2.28 µM | GI50 [55] 4.28 µM | GI50 [36] 3.03 µM | GI50 [37] 3.02 µM | GI50 [38] 5.79 µM | GI50 [39] 6.46 µM | GI50 [41] 2.88 µM | GI50 [42] 2.48 µM | GI50 [43] 6.61 µM | GI50 [44] 8.15 µM | GI50 [45] 5.4 µM | GI50 [46] 24.1 µM | GI50 [47] 3.06 µM | GI50 [48] 5.06 µM | GI50 [49] 18.4 µM
66.1 µM: TGI [47]
42.5 µM: TGI [32]
34.6 µM: TGI [2]
39.3 µM: TGI [41]
73.1 µM: TGI [8]
93.5 µM: TGI [14]
73.7 µM: TGI [21]
39.6 µM: TGI [52]
5.47 µM: TGI [3]
78.9 µM: TGI [45]
7.99 µM: TGI [30]
9.92 µM: TGI [36]
20.8 µM: TGI [37]
> 100 µM: TGI [4] | TGI [5] | TGI [7] | TGI [10] | TGI [11] | TGI [12] | TGI [13] | TGI [15] | TGI [17] | TGI [18] | TGI [19] | TGI [22] | TGI [24] | TGI [25] | TGI [26] | TGI [27] | TGI [54] | TGI [29] | TGI [33] | TGI [34] | TGI [55] | TGI [39] | TGI [44] | TGI [46] | TGI [48]
51.3 µM: TGI [38]
59.1 µM: TGI [53]
87.2 µM: TGI [49]

CC1C(/C=C/c2ccoc2)ON2CCCC12 (stereo not drawn)
> 100 µM: TGI [1] | TGI [2] | TGI [5] | TGI [6] | TGI [8] | TGI [11] | TGI [12] | TGI [13] | TGI [14] | TGI [16] | TGI [17] | TGI [19] | TGI [20] | TGI [52] | TGI [22] | TGI [24] | TGI [25] | TGI [53] | TGI [56] | TGI [57] | TGI [54] | TGI [28] | TGI [30] | TGI [31] | TGI [33] | TGI [34] | TGI [35] | TGI [38] | TGI [39] | TGI [40] | TGI [41] | TGI [42] | TGI [43] | TGI [44] | TGI [45] | TGI [46] | TGI [48] | TGI [49] | TGI [50]
